Results: patent US20250230193A1, “CYCLIC COMPOUND HAVING SELECTIVE KRAS INHIBITORY EFFECT ON HRAS AND NRAS” (CHUGAI SEIYAKU KABUSHIKI KAISHA, priority 2022, published 2025)

Columns and labels:
[1] = biological target: GDP-bound HRAS wild-type protein (Homo sapiens, UniProt P01112); assay: Binding to HRAS by surface plasmon resonance (SPR), Single Cycle Kinetics; conditions: KD ratio, GDP-bound HRAS wild-type vs GDP-bound KRAS wild-type, SPR
[2] = biological target: GDP-bound NRAS wild-type protein (Homo sapiens, UniProt P01111); assay: Binding to NRAS by surface plasmon resonance (SPR), Single Cycle Kinetics; conditions: KD ratio, GDP-bound NRAS wild-type vs GDP-bound KRAS wild-type, SPR
Sequence of GDP-bound NRAS wild-type protein (P01111 whole entry): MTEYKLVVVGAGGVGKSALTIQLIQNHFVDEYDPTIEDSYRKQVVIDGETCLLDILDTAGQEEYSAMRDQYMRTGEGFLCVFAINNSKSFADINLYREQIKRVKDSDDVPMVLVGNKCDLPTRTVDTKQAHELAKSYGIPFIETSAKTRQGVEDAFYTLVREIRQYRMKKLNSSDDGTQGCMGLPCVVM

Sequence of GDP-bound HRAS wild-type protein (P01112 whole entry): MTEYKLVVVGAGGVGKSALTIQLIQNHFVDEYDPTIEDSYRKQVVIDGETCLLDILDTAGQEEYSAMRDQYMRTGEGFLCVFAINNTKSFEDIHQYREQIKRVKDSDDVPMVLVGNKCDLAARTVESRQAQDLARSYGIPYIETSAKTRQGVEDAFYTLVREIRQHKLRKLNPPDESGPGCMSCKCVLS

SMILES | HRAS/KRAS (ratio of KD value for HRAS to KD value for KRAS) [1] | NRAS/KRAS (ratio of KD value for NRAS to KD value for KRAS) [2]
CCCN(C)C(=O)[C@@H]1CC(=O)N(C)[C@@H](CC)C(=O)N[C@@H]([C@@H](C)CC)C(=O)N(C)CC(=O)N(C)[C@H]2C/C=C\CCN(C2=O)[C@@H](Cc2ccc(C(F)(F)F)cc2)C(=O)N(C)CC(=O)N[C@@H](CCc2ccc(C(F)(F)F)c(OC)c2)C(=O)N2C[C@H](OCC)C[C@H]2C(=O)NC2(CC(C)(C)C2)C(=O)N(C)[C@@H](C2CCCC2)C(=O)N1C [PP1654] | A (a compound having 10 or more and less than 20 is denoted as A) | A (a compound having 10 or more and less than 20 is denoted as A)
CCO[C@@H]1C[C@H]2C(=O)NC3(CC(C)(C)C3)C(=O)N(C)[C@@H](C3CCCC3)C(=O)N(C)[C@H](C(=O)N(C)CC)CC(=O)N(C)[C@@H](CC(F)F)C(=O)N[C@@H]([C@@H](C)CC)C(=O)N(C)CC(=O)N(C)[C@H]3C/C=C\CCN(C3=O)[C@@H](Cc3ccc(C(F)(F)F)cc3)C(=O)N(C)CC(=O)N[C@@H](CCc3ccc(C(F)(F)F)c(OC)c3)C(=O)N2C1 [PP1655] | A (a compound having 10 or more and less than 20 is denoted as A) | A (a compound having 10 or more and less than 20 is denoted as A)
CCCN(C)C(=O)[C@@H]1CC(=O)N(C)[C@@H](COC)C(=O)N[C@@H]([C@@H](C)CC)C(=O)N(C)CC(=O)N(C)[C@H]2C/C=C\CCN(C2=O)[C@@H](Cc2ccc(C(F)(F)F)cc2)C(=O)N(C)CC(=O)N[C@@H](CCc2ccc(C(F)(F)F)c(OC)c2)C(=O)N2C[C@H](OCC)C[C@H]2C(=O)NC2(CC(C)(C)C2)C(=O)N(C)[C@@H](C2CCCC2)C(=O)N1C [PP1656] | A (a compound having 10 or more and less than 20 is denoted as A) | AA (a compound having 20 or more is denoted as AA)
CCCOC[C@H]1C(=O)N[C@@H]([C@@H](C)CC)C(=O)N(C)CC(=O)N(C)[C@H]2C/C=C\CCN(C2=O)[C@@H](Cc2ccc(C(F)(F)F)cc2)C(=O)N(C)CC(=O)N[C@@H](CCc2ccc(C(F)(F)F)c(OC)c2)C(=O)N2C[C@H](OCC)C[C@H]2C(=O)NC2(CC(C)(C)C2)C(=O)N(C)[C@@H](C2CCCC2)C(=O)N(C)[C@H](C(=O)N(C)C)CC(=O)N1C [PP1657] | B (a compound having 3 or more and less than 10 is denoted as B) | A (a compound having 10 or more and less than 20 is denoted as A)
CC[C@H](C)[C@@H]1NC(=O)[C@H](CC(F)F)N(C)C(=O)C[C@@H](C(=O)N(C)C)N(C)C(=O)[C@H](C2CCCC2)N(C)C(=O)C2(CC(C)(C)C2)NC(=O)[C@@H]2C[C@H](C)CN2C(=O)[C@H](CCc2cc(F)c(C(F)(F)F)c(F)c2)NC(=O)CN(C)C(=O)[C@H](Cc2ccc(C(F)(F)F)cc2)N2CC/C=C\C[C@@H](C2=O)N(C)C(=O)CN(C)C1=O [PP1658] | A (a compound having 10 or more and less than 20 is denoted as A) | A (a compound having 10 or more and less than 20 is denoted as A)
CCCC[C@H]1C(=O)N[C@@H]([C@@H](C)CC)C(=O)N(C)CC(=O)N(C)[C@H]2C/C=C\CCN(C2=O)[C@@H](Cc2ccc(C(F)(F)F)cc2)C(=O)N(C)CC(=O)N[C@@H](CCc2cc(F)c(C(F)(F)F)c(F)c2)C(=O)N2C[C@@H](C)C[C@H]2C(=O)NC2(CC(C)(C)C2)C(=O)N(C)[C@@H](C2CCCC2)C(=O)N(C)[C@H](C(=O)N(C)C)CC(=O)N1C [PP1661] | A (a compound having 10 or more and less than 20 is denoted as A) | A (a compound having 10 or more and less than 20 is denoted as A)
CC[C@H](C)[C@@H]1NC(=O)[C@H](CC(C)C)N(C)C(=O)C[C@@H](C(=O)N(C)C)N(C)C(=O)[C@H](C2CCCC2)N(C)C(=O)C2(CC(C)(C)C2)NC(=O)[C@@H]2C[C@H](C)CN2C(=O)[C@H](CCc2cc(F)c(C(F)(F)F)c(F)c2)NC(=O)CN(C)C(=O)[C@H](Cc2ccc(C(F)(F)F)cc2)N2CC/C=C\C[C@@H](C2=O)N(C)C(=O)CN(C)C1=O [PP1662] | B (a compound having 3 or more and less than 10 is denoted as B) | A (a compound having 10 or more and less than 20 is denoted as A)
CCCN(C)C(=O)[C@@H]1CC(=O)N(C)[C@@H](C)C(=O)N[C@@H]([C@@H](C)CC)C(=O)N(C)CC(=O)N(C)[C@H]2C/C=C\CCN(C2=O)[C@@H](Cc2ccc(C(F)(F)F)cc2)C(=O)N(C)CC(=O)N[C@@H](CCc2cc(F)c(C(F)(F)F)c(F)c2)C(=O)N2C[C@H](F)C[C@H]2C(=O)NC2(CC(C)(C)C2)C(=O)N(C)[C@@H](C2CCCC2)C(=O)N1C [PP1663] | A (a compound having 10 or more and less than 20 is denoted as A) | AA (a compound having 20 or more is denoted as AA)
CCCN(C)C(=O)[C@@H]1CC(=O)N(C)[C@@H](CC2CC2)C(=O)N[C@@H]([C@@H](C)CC)C(=O)N(C)CC(=O)N(C)[C@H]2C/C=C\CCN(C2=O)[C@@H](Cc2ccc(C(F)(F)F)cc2)C(=O)N(C)CC(=O)N[C@@H](CCc2cc(F)c(C(F)(F)F)c(F)c2)C(=O)N2C[C@H](F)C[C@H]2C(=O)NC2(CC(C)(C)C2)C(=O)N(C)[C@@H](C2CCCC2)C(=O)N1C [PP1665] | A (a compound having 10 or more and less than 20 is denoted as A) | AA (a compound having 20 or more is denoted as AA)
CCCN(C)C(=O)[C@@H]1CC(=O)N(C)[C@@H](C)C(=O)N[C@@H]([C@@H](C)CC)C(=O)N(C)CC(=O)N(C)[C@H]2C/C=C\CCN(C2=O)[C@@H](Cc2ccc(C(F)(F)F)cc2)C(=O)N(C)CC(=O)N[C@@H](CCc2cc(F)c(C(F)(F)F)c(F)c2)C(=O)N2C[C@H](OCC)C[C@H]2C(=O)NC2(CCC2)C(=O)N(C)[C@@H](C2CCCC2)C(=O)N1C [PP1666] | A (a compound having 10 or more and less than 20 is denoted as A) | A (a compound having 10 or more and less than 20 is denoted as A)
CCO[C@@H]1C[C@H]2C(=O)NC3(CCC3)C(=O)N(C)[C@@H](C3CCCC3)C(=O)N(C)[C@H](C(=O)N(C)CC)CC(=O)N(C)[C@@H](CC3CCC3)C(=O)N[C@@H]([C@@H](C)CC)C(=O)N(C)CC(=O)N(C)[C@H]3C/C=C\CCN(C3=O)[C@@H](Cc3ccc(C(F)(F)F)cc3)C(=O)N(C)CC(=O)N[C@@H](CCc3cc(F)c(C(F)(F)F)c(F)c3)C(=O)N2C1 [PP1667] | A (a compound having 10 or more and less than 20 is denoted as A) | A (a compound having 10 or more and less than 20 is denoted as A)
CCCOC[C@H]1C(=O)N[C@@H]([C@@H](C)CC)C(=O)N(C)CC(=O)N(C)[C@H]2C/C=C\CCN(C2=O)[C@@H](Cc2ccc(C(F)(F)F)cc2)C(=O)N(C)CC(=O)N[C@@H](CCc2cc(F)c(C(F)(F)F)c(F)c2)C(=O)N2C[C@H](OCC)C[C@H]2C(=O)NC2(CCC2)C(=O)N(C)[C@@H](C2CCCC2)C(=O)N(C)[C@H](C(=O)N(C)CCC)CC(=O)N1C [PP1668] | A (a compound having 10 or more and less than 20 is denoted as A) | A (a compound having 10 or more and less than 20 is denoted as A)
CCCN(C)C(=O)[C@@H]1CC(=O)N(C)[C@@H](CC)C(=O)N[C@@H]([C@@H](C)CC)C(=O)N(C)CC(=O)N(C)[C@H]2C/C=C\CCN(C2=O)[C@@H](Cc2ccc(C(F)(F)F)cc2)C(=O)N(C)CC(=O)N[C@@H](CCc2cc(F)c(C(F)(F)F)c(F)c2)C(=O)N2C[C@H](OCC)C[C@H]2C(=O)NC2(CC(C)(C)C2)C(=O)N(C)[C@@H](C2CCCC2)C(=O)N1C [PP1670] | A (a compound having 10 or more and less than 20 is denoted as A) | A (a compound having 10 or more and less than 20 is denoted as A)
CCO[C@@H]1C[C@H]2C(=O)NC3(CC(C)(C)C3)C(=O)N(C)[C@@H](C3CCCC3)C(=O)N(C)[C@H](C(=O)N(C)CC)CC(=O)N(C)[C@@H](COC)C(=O)N[C@@H]([C@@H](C)CC)C(=O)N(C)CC(=O)N(C)[C@H]3C/C=C\CCN(C3=O)[C@@H](Cc3ccc(C(F)(F)F)cc3)C(=O)N(C)CC(=O)N[C@@H](CCc3cc(F)c(C(F)(F)F)c(F)c3)C(=O)N2C1 [PP1671] | A (a compound having 10 or more and less than 20 is denoted as A) | A (a compound having 10 or more and less than 20 is denoted as A)
CCCN(C)C(=O)[C@@H]1CC(=O)N(C)[C@@H](COC)C(=O)N[C@@H]([C@@H](C)CC)C(=O)N(C)CC(=O)N(C)[C@H]2C/C=C\CCN(C2=O)[C@@H](Cc2ccc(C(F)(F)F)cc2)C(=O)N(C)CC(=O)N[C@@H](CCc2cc(F)c(C(F)(F)F)c(F)c2)C(=O)N2C[C@H](OCC)C[C@H]2C(=O)NC2(CC(C)(C)C2)C(=O)N(C)[C@@H](C2CCCC2)C(=O)N1C [PP1672] | A (a compound having 10 or more and less than 20 is denoted as A) | A (a compound having 10 or more and less than 20 is denoted as A)
CCCOC[C@H]1C(=O)N[C@@H]([C@@H](C)CC)C(=O)N(C)CC(=O)N(C)[C@H]2C/C=C\CCN(C2=O)[C@@H](Cc2ccc(C(F)(F)F)cc2)C(=O)N(C)CC(=O)N[C@@H](CCc2cc(F)c(C(F)(F)F)c(F)c2)C(=O)N2C[C@H](OCC)C[C@H]2C(=O)NC2(CC(C)(C)C2)C(=O)N(C)[C@@H](C2CCCC2)C(=O)N(C)[C@H](C(=O)N(C)CCC)CC(=O)N1C [PP1673] | A (a compound having 10 or more and less than 20 is denoted as A) | A (a compound having 10 or more and less than 20 is denoted as A)
